Legend:
[1] = Cell viability measurement (MTS), Vero cells; format: cell-based; conditions: monkey
Description: (§1) Experimental Example 3: Cell Viability Measurement
(§2) Vero cell line (VERO01WCB-1201, Ministry of Food and Drug Safety, Republic of Korea), Calu-3 cell line (KCLB #30055, Korea Cell Line Bank (KCLB), Republic of Korea), CellTiter 96® AQueous One Solution Cell Proliferation Assay kit (Promega, cat. #G3582), and Infinite M200 microplate reader (Tecan).
Vero cells were cultured at 37 °C and 5% CO2 in DMEM medium supplemented with 10% fetal bovine serum, 100 units/mL penicillin, and 100 μg/mL streptomycin.
(§3) Vero cells or Calu-3 cells were seeded in 96-well microplates and cultured for 24 hours until the cell confluency reached 20%. After the incubation, compounds were treated in DMSO at concentrations (1, 3, and 10 μM) to reach 0.5% v/v in each well, and reacted at 37 °C for 48 hours. Into each well of the incubated 96-well microplate, 3-(4,5-dimethylthiazol-2-yl)-5-(3-carboxymethoxyphenyl)-2-(4-sulfophenyl)-2H-tetrazolium salt (MTS) assay solution [CellTiter 96® AQueous One Solution Cell Proliferation Assay kit (Promega)] mixed with DMEM medium at a ratio of 1:5, was dispensed at 100 μL/well and incubated at 37 °C for 1 hour. The 490 nm and 690 nm absorbance was then measured using an Infinite M200 instrument.
(§4) The cell viability (also, referred to as cell survival rate) (%) by compound treatment was calculated using the following analysis method. The 690 nm background absorbance value was subtracted from the measured 490 nm absorbance value. Then, to obtain the cell viability of each test group, the viability of the DMSO-treated group that was not treated with the compound was set to 100% and then the relative viability 1 of each compound was calculated. Two to six repeated tests were performed to obtain the results, and the mean values of the results were categorized into the following ranges and shown in Table 5 below (A: 80% survived, B: 50-80% survived, N/A: not tested)

[2] = Cell viability measurement (MTS), Calu-3 cells; format: cell-based; conditions: human
Description: as §1, §2
Calu-3 cells were cultured at 37 °C and 5% CO2 in MEM medium supplemented with 10% fetal bovine serum, 2.2 g/L sodium bicarbonate, 1% 100 units/mL penicillin, and 100 μg/mL streptomycin.
as §3, §4

Work on FC(F)(F)c1ccc2nc(-c3cccc(Nc4ccc(-c5ccccc5)nn4)c3)[nH]c2c1 [Example 1, 6-phenyl-N-(3-(6-(trifluoromethyl)-1H-benzo[d]imidazol-2-yl)phenyl)pyridazin-3-amine] yielded a viability at 48 h, 1 µM [1] greater than 80% and a viability at 48 h, 3 µM [1] greater than 80%.
Work on CC(C)(C)c1ccc2nc(-c3cccc(Nc4ccc(-c5ccccc5)nn4)c3)[nH]c2c1 [Example 3, N-[3-(6-tert-butyl-1H-benzo[d]imidazol-2-yl)phenyl]-6-phenylpyridazin-3-amine] yielded a viability at 48 h, 1 µM [1] greater than 80% and a viability at 48 h, 3 µM [1] of 50 to 80%.
With c1ccc(-c2ccc(Nc3cccc(-c4nc5ccccc5[nH]4)c3)cc2)cc1 [Example 19, N-[3-(1H-benzo[d]imidazol-2-yl)phenyl]-[1,1′-biphenyl]-4-amine] the viability at 48 h, 1 µM [2] was 50 to 80% and the viability at 48 h, 3 µM [2] was 50 to 80%.
c1cc(Nc2ccc(-c3ccncc3)cc2)cc(-c2nc3ccccc3[nH]2)c1 [Example 33, N-[3-(1H-benzo[d]imidazol-2-yl)phenyl]-4-(pyridin-4-yl)aniline] showed a viability at 48 h, 1 µM [2] of 50 to 80%.
c1cc(Nc2ncc(-c3cccnn3)cn2)cc(-c2nc3cnccc3[nH]2)c1 [Example 49, N-(3-{1H-imidazolo[4,5-c]pyridin-2-yl}phenyl)-5-(pyridazin-3-yl)pyrimidin-2-amine] gave a viability at 48 h, 1 µM [2] greater than 80%, a viability at 48 h, 3 µM [2] greater than 80% and a viability at 48 h, 10 µM [2] greater than 80%.
For c1cc(Nc2ncc(-c3cccnn3)cn2)cc(-c2nc3ccccc3[nH]2)c1 [Example 53, N-[3-(1H-benzo[d]imidazol-2-yl)phenyl]-5-(pyridazin-3-yl)pyrimidin-2-amine], the viability at 48 h, 1 µM [2] was greater than 80%, the viability at 48 h, 3 µM [2] was 50 to 80% and the viability at 48 h, 10 µM [2] was 50 to 80%.
With c1cc(Nc2ccc(-c3ccncn3)cn2)cc(-c2nc3ccccc3[nH]2)c1 [Example 68, N-[3-(1H-benzo[d]imidazol-2-yl)phenyl]-5-(pyrimidin-4-yl)pyridin-2-amine] the viability at 48 h, 1 µM [2] was 50 to 80%.
c1cnc(-c2ccc(Nc3cccc(-c4nc5ccccc5[nH]4)c3)nc2)nc1 [Example 69, N-(3-(1H-benzo[d]imidazol-2-yl)phenyl)-5-(pyrimidin-2-yl)pyridin-2-amine] showed a viability at 48 h, 1 µM [2] greater than 80%.
In the case of c1cc(Nc2ncc(-c3cncnc3)cn2)cc(-c2nc3ccccc3[nH]2)c1 [Example 70, N-[3-(1H-benzo[d]imidazol-2-yl)phenyl]-[5,5′-bipyrimidin]-2-amine], the viability at 48 h, 1 µM [2] is reported as greater than 80% and the viability at 48 h, 3 µM [2] is reported as 50 to 80%.
Work on c1cnc(-c2cnc(Nc3cccc(-c4nc5ccccc5[nH]4)c3)nc2)nc1 [Example 71, N-[3-(1H-benzo[d]imidazol-2-yl)phenyl]-[2,5′-bipyrimidin]-2′-amine] yielded a viability at 48 h, 1 µM [2] greater than 80% and a viability at 48 h, 3 µM [2] of 50 to 80%.
Work on c1ccc(-c2ccc(Nc3cccc(-c4nc5ccccc5[nH]4)c3)cn2)cc1 [Example 80, N-[3-(1H-benzo[d]imidazol-2-yl)phenyl]-6-phenyl-pyridin-3-amine] yielded a viability at 48 h, 1 µM [2] greater than 80% and a viability at 48 h, 3 µM [2] of 50 to 80%.
Fc1ccc2nc(-c3cccc(Nc4ccc(-c5ccccn5)cc4)c3)[nH]c2c1 [Example 92, 3-(6-fluoro-1H-benzo[d]imidazol-2-yl)-N-[4-(2-pyridyl)phenyl]aniline] showed a viability at 48 h, 1 µM [2] of 50 to 80%.
c1cc(Nc2ccc(-c3ccnnc3)cc2)cc(-c2nc3ccccc3[nH]2)c1 [Example 94, 3-(1H-benzo[d]imidazol-2-yl)-N-(4-pyridazin-4-ylphenyl)aniline] gave a viability at 48 h, 1 µM [2] of 50 to 80%.
Fc1cc2nc(-c3cccc(Nc4ccc(-c5ccncn5)cc4)c3)[nH]c2cc1F [Example 95, 3-(5,6-difluoro-1H-benzo[d]imidazol-2-yl)-N-(4-pyrimidin-4-ylphenyl)aniline] gave a viability at 48 h, 1 µM [2] of 50 to 80%.
c1cc(Nc2ccc(C3CCCCC3)cc2)cc(-c2nc3ccccc3[nH]2)c1 [Example 97, 3-(1H-benzo[d]imidazol-2-yl)-N-(4-cyclohexylphenyl)aniline] showed a viability at 48 h, 1 µM [2] greater than 80% and a viability at 48 h, 3 µM [2] of 50 to 80%.
Work on FC(F)(F)c1ccc2nc(-c3cccc(Nc4ccc(-c5ccccn5)cc4)c3)[nH]c2c1 [Example 98, N-[4-(2-pyridyl)phenyl]-3-[6-(trifluoromethyl)-1H-benzo[d]imidazol-2-yl]aniline] yielded a viability at 48 h, 1 µM [2] of 50 to 80%.
In the case of Fc1cc2nc(-c3cccc(Nc4ncc(-c5cccnn5)cn4)c3)[nH]c2cc1F [Example 99, N-[3-(5,6-difluoro-1H-benzo[d]imidazol-2-yl)phenyl]-5-pyridazin-3-yl-pyrimidin-2-amine], the viability at 48 h, 1 µM [2] is reported as greater than 80%, the viability at 48 h, 3 µM [2] is reported as greater than 80% and the viability at 48 h, 10 µM [2] is reported as greater than 80%.
With FC(F)(F)c1ccc2nc(-c3cccc(Nc4ccc(-c5ncccn5)cn4)c3)[nH]c2c1 [Example 100, 5-pyrimidin-2-yl-N-[3-[6-(trifluoromethyl)-1H-benzo[d]imidazol-2-yl]phenyl]pyridin-2-amine] the viability at 48 h, 1 µM [2] was 50 to 80%.
Cc1cccc2nc(-c3cccc(Nc4ccc(-c5cccnn5)cc4)c3)[nH]c12 [Example 101, 3-(7-methyl-1H-benzo[d]imidazol-2-yl)-N-(4-pyridazin-3-ylphenyl)aniline] showed a viability at 48 h, 1 µM [2] greater than 80%.
With FC(F)(F)c1cc2[nH]c(-c3cccc(Nc4ncc(-c5cccnn5)cn4)c3)nc2cn1 [Example 103, 5-pyridazin-3-yl-N-[3-[6-(trifluoromethyl)-1H-imidazo[4,5-c]pyridin-2-yl]phenyl]pyrimidin-2-amine] the viability at 48 h, 1 µM [2] was greater than 80%, the viability at 48 h, 3 µM [2] was greater than 80% and the viability at 48 h, 10 µM [2] was greater than 80%.
Molecule Fc1cc2[nH]c(-c3cccc(Nc4ccc(-c5cccnn5)cc4)c3)nc2cc1C(F)(F)F [Example 104, 3-[6-fluoro-5-(trifluoromethyl)-1H-benzo[d]imidazol-2-yl]-N-(4-pyridazin-3-ylphenyl)aniline] has a viability at 48 h, 1 µM [2] of 50 to 80% and a viability at 48 h, 3 µM [2] of 50 to 80%.
For CC(C)(C)c1ccc2nc(-c3cccc(Nc4ccc(-c5cccnn5)cc4)c3)[nH]c2c1 [Example 107, 3-(6-tert-butyl-1H-benzo[d]imidazol-2-yl)-N-(4-pyridazin-3-ylphenyl)aniline], the viability at 48 h, 1 µM [2] was greater than 80%.
With COc1ccc2nc(-c3cccc(Nc4ncc(-c5cccnn5)cn4)c3)[nH]c2c1 [Example 108, N-[3-(6-methoxy-1H-benzo[d]imidazol-2-yl)phenyl]-5-pyridazin-3-yl-pyrimidin-2-amine] the viability at 48 h, 1 µM [2] was greater than 80%, the viability at 48 h, 3 µM [2] was greater than 80% and the viability at 48 h, 10 µM [2] was greater than 80%.
FC(F)(F)Oc1ccc2nc(-c3cccc(Nc4ccc(-c5ccncn5)cc4)c3)[nH]c2c1 [Example 109, N-(4-pyrimidin-4-ylphenyl)-3-[6-(trifluoromethoxy)-1H-benzo[d]imidazol-2-yl]aniline] gave a viability at 48 h, 1 µM [2] of 50 to 80%.
Work on FC(F)(F)Oc1ccc2nc(-c3cccc(Nc4ncc(-c5ccccn5)cn4)c3)[nH]c2c1 [Example 118, 5-(2-pyridyl)-N-[3-[6-(trifluoromethoxy)-1H-benzo[d]imidazol-2-yl]phenyl]pyrimidin-2-amine] yielded a viability at 48 h, 10 µM [2] of 50 to 80%.
In the case of FC(F)(F)Oc1cc2nc(-c3cccc(Nc4ncc(-c5cccnn5)cn4)c3)[nH]c2cc1Cl [Example 120, N-[3-[6-chloro-5-(trifluoromethoxy)-1H-benzo[d]imidazol-2-yl]phenyl]-5-pyridazin-3-yl-pyrimidin-2-amine], the viability at 48 h, 10 µM [2] is reported as greater than 80%.
Fc1cc2[nH]c(-c3cccc(Nc4ncc(-c5ccccn5)cn4)c3)nc2cn1 [Example 286, N-(3-(6-fluoro-1H-imidazo[4,5-c]pyridin-2-yl)phenyl)-5-(pyridin-2-yl)pyrimidin-2-amine] gave a viability at 48 h, 10 µM [2] greater than 80%.
Molecule FC(F)(F)Oc1ccc2nc(-c3cccc(Nc4ncc(-c5cccnn5)cn4)c3)[nH]c2c1 [Example 295, 5-(pyridazin-3-yl)-N-(3-(6-(trifluoromethoxy)-1H-benzo[d]imidazol-2-yl)phenyl)pyrimidin-2-amine] has a viability at 48 h, 10 µM [2] greater than 80%.
For Fc1cc2nc(-c3cccc(Nc4cnc(-c5ccncn5)cn4)c3)[nH]c2cc1F [Example 297, N-(3-(5,6-difluoro-1H-benzo[d]imidazol-2-yl)phenyl)-5-(pyrimidin-4-yl)pyrazin-2-amine], the viability at 48 h, 10 µM [2] was greater than 80%.
In the case of FC(F)Oc1ccc2nc(-c3cccc(Nc4cnc(-c5ccccn5)cn4)c3)[nH]c2c1 [Example 300, N-(3-(6-(difluoromethoxy)-1H-benzo[d]imidazol-2-yl)phenyl)-5-(pyridin-2-yl) pyrazin-2-amine], the viability at 48 h, 10 µM [2] is reported as greater than 80%.
With Clc1cc2[nH]c(-c3cccc(Nc4cnc(-c5ccccn5)cn4)c3)nc2cn1 [Example 301, N-(3-(6-chloro-1H-imidazo[4,5-c]pyridin-2-yl)phenyl)-5-(pyridin-2-yl)pyrazin-2-amine] the viability at 48 h, 10 µM [2] was greater than 80%.
For Clc1cc2[nH]c(-c3cccc(Nc4ncc(-c5cscn5)cn4)c3)nc2cn1 [Example 303, N-(3-(6-chloro-1H-imidazo[4,5-c]pyridin-2-yl)phenyl)-5-(thiazol-4-yl)pyrimidin-2-amine], the viability at 48 h, 10 µM [2] was 50 to 80%.

Source: patent publication US20260364068A1, “ANTIVIRAL USE OF HETEROARYL DERIVATIVE COMPOUND” (UIF (University Industry Foundation), Yonsei University, priority 2022, published 2026)
